Experiment: xn = mol fraction of the nth substance listed
Settings: Liquid, Vibrating tube method

CCCCCCCC [octane] + c1ccccc1
mass density [kg/m3]
Settings | x1 = 0.1097 | x1 = 0.2036 | x1 = 0.2984 | x1 = 0.4069 | x1 = 0.5027 | x1 = 0.5904 | x1 = 0.6989 | x1 = 0.7964 | x1 = 0.904 | x1 = 1
318.15 K, 100 kPa | 818.2 | 794.1 | 773.6 | 753.6 | 738.1 | 725.8 | 712.4 | 701.5 | 691.1 | 682.8
318.15 K, 2130 kPa | 820.2 | 796.1 | 775.6 | 755.6 | 740.1 | 727.8 | 714.4 | 703.5 | 693.1 | 684.7
318.15 K, 4150 kPa | 822.1 | 798.1 | 777.6 | 757.6 | 742.1 | 729.8 | 716.4 | 705.5 | 695.1 | 686.7
318.15 K, 6180 kPa | 824 | 800 | 779.5 | 759.5 | 744 | 731.7 | 718.3 | 707.4 | 696.9 | 688.6
318.15 K, 8210 kPa | 825.8 | 801.9 | 781.4 | 761.4 | 745.9 | 733.6 | 720.2 | 709.3 | 698.8 | 690.4
318.15 K, 10230 kPa | 827.7 | 803.7 | 783.3 | 763.3 | 747.8 | 735.5 | 722 | 711.1 | 700.6 | 692.2
318.15 K, 11250 kPa | 828.6 | 804.6 | 784.2 | 764.2 | 748.7 | 736.4 | 722.9 | 712 | 701.5 | 693.1
318.15 K, 12260 kPa | 829.4 | 805.5 | 785.1 | 765.1 | 749.6 | 737.3 | 723.8 | 713 | 702.4 | 694
318.15 K, 14290 kPa | 831.2 | 807.3 | 786.8 | 766.9 | 751.4 | 739.1 | 725.6 | 714.7 | 704.2 | 695.7
318.15 K, 16310 kPa | 832.9 | 809 | 788.6 | 768.6 | 753.2 | 740.8 | 727.3 | 716.4 | 705.9 | 697.4
318.15 K, 18340 kPa | 834.6 | 810.7 | 790.3 | 770.3 | 754.9 | 742.5 | 729 | 718.1 | 707.5 | 699.1
318.15 K, 20370 kPa | 836.2 | 812.4 | 792 | 772 | 756.6 | 744.2 | 730.7 | 719.8 | 709.2 | 700.7
318.15 K, 22390 kPa | 837.9 | 814.1 | 793.6 | 773.7 | 758.2 | 745.8 | 732.3 | 721.4 | 710.8 | 702.3
318.15 K, 24420 kPa | 839.5 | 815.7 | 795.3 | 775.3 | 759.8 | 747.4 | 733.9 | 723 | 712.4 | 703.9
318.15 K, 26450 kPa | 841 | 817.3 | 796.8 | 776.9 | 761.4 | 749 | 735.5 | 724.5 | 713.9 | 705.4
318.15 K, 28470 kPa | 842.6 | 818.8 | 798.5 | 778.5 | 763 | 750.6 | 737 | 726.1 | 715.4 | 706.9
318.15 K, 29490 kPa | 843.3 | 819.6 | 799.2 | 779.2 | 763.7 | 751.4 | 737.8 | 726.8 | 716.1 | 707.6
318.15 K, 30500 kPa | 844.1 | 820.4 | 799.9 | 780 | 764.5 | 752.1 | 738.5 | 727.5 | 716.9 | 708.3
318.15 K, 32530 kPa | 845.6 | 821.9 | 801.4 | 781.5 | 766 | 753.6 | 740 | 729 | 718.3 | 709.7
318.15 K, 34550 kPa | 847.1 | 823.4 | 802.9 | 783 | 767.5 | 755.1 | 741.5 | 730.5 | 719.7 | 711.2
318.15 K, 36580 kPa | 848.5 | 824.8 | 804.4 | 784.4 | 768.9 | 756.5 | 742.9 | 731.9 | 721.1 | 712.5
318.15 K, 38600 kPa | 850 | 826.3 | 805.8 | 785.9 | 770.4 | 757.9 | 744.3 | 733.3 | 722.5 | 713.9
318.15 K, 39620 kPa | 850.7 | 827 | 806.5 | 786.6 | 771.1 | 758.6 | 745 | 734 | 723.2 | 714.6
328.15 K, 100 kPa | 807.9 | 784.5 | 764.1 | 744.3 | 729.2 | 717 | 704 | 693.3 | 683 | 674.5
328.15 K, 2130 kPa | 810 | 786.7 | 766.2 | 746.5 | 731.4 | 719.1 | 706.1 | 695.5 | 685.1 | 676.6
328.15 K, 4150 kPa | 812.1 | 788.7 | 768.3 | 748.6 | 733.5 | 721.2 | 708.2 | 697.6 | 687.2 | 678.7
328.15 K, 6180 kPa | 814.1 | 790.8 | 770.4 | 750.7 | 735.6 | 723.3 | 710.3 | 699.7 | 689.2 | 680.7
328.15 K, 8210 kPa | 816.1 | 792.8 | 772.4 | 752.7 | 737.6 | 725.3 | 712.3 | 701.7 | 691.2 | 682.6
328.15 K, 10230 kPa | 818 | 794.7 | 774.4 | 754.7 | 739.6 | 727.3 | 714.3 | 703.7 | 693.2 | 684.6
328.15 K, 11250 kPa | 818.9 | 795.7 | 775.3 | 755.6 | 740.6 | 728.3 | 715.2 | 704.6 | 694.1 | 685.5
328.15 K, 12260 kPa | 819.9 | 796.6 | 776.3 | 756.6 | 741.5 | 729.2 | 716.2 | 705.6 | 695 | 686.4
328.15 K, 14290 kPa | 821.7 | 798.5 | 778.2 | 758.5 | 743.4 | 731.1 | 718.1 | 707.4 | 696.9 | 688.3
328.15 K, 16310 kPa | 823.6 | 800.4 | 780.1 | 760.4 | 745.3 | 733 | 719.9 | 709.3 | 698.7 | 690.1
328.15 K, 18340 kPa | 825.3 | 802.1 | 781.9 | 762.2 | 747.1 | 734.8 | 721.7 | 711.2 | 700.5 | 691.8
328.15 K, 20370 kPa | 827.1 | 803.9 | 783.6 | 763.9 | 748.9 | 736.6 | 723.4 | 713 | 702.2 | 693.6
328.15 K, 22390 kPa | 828.8 | 805.7 | 785.4 | 765.7 | 750.6 | 738.3 | 725.1 | 714.5 | 703.9 | 695.2
328.15 K, 24420 kPa | 830.5 | 807.4 | 787.1 | 767.4 | 752.3 | 740 | 726.8 | 716.2 | 705.6 | 696.9
328.15 K, 26450 kPa | 832.2 | 809.1 | 788.8 | 769.1 | 754 | 741.6 | 728.5 | 717.8 | 707.2 | 698.5
328.15 K, 28470 kPa | 833.8 | 810.7 | 790.4 | 770.7 | 755.6 | 743.2 | 730.1 | 719.4 | 708.8 | 700
328.15 K, 29490 kPa | 834.6 | 811.5 | 791.2 | 771.5 | 756.4 | 744 | 730.9 | 720.1 | 709.6 | 700.8
328.15 K, 30500 kPa | 835.4 | 812.3 | 792 | 772.3 | 757.2 | 744.8 | 731.7 | 720.9 | 710.3 | 701.6
328.15 K, 32530 kPa | 837 | 813.9 | 793.6 | 773.9 | 758.8 | 746.4 | 733.2 | 722.5 | 711.9 | 703
328.15 K, 34550 kPa | 838.5 | 815.5 | 795.2 | 775.4 | 760.3 | 747.9 | 734.7 | 724 | 713.4 | 704.5
328.15 K, 36580 kPa | 840 | 817 | 796.7 | 777 | 761.8 | 749.4 | 736.2 | 725.5 | 714.8 | 706
328.15 K, 38600 kPa | 841.5 | 818.5 | 798.2 | 778.4 | 763.3 | 750.9 | 737.7 | 726.9 | 716.2 | 707.4
328.15 K, 39620 kPa | 842.3 | 819.1 | 798.9 | 779.2 | 764 | 751.6 | 738.4 | 727.6 | 716.9 | 708.1

— the NIST ThermoML archive (doi:10.1016/j.jct.2007.11.009)
